Patent US4777290A, “10,10-dihydro-10-[(substituted-carbonyl)imino]-10-phe nyl-10H-phenoxaphosphines” (American Cyanamid Company, priority 1987, dated 1988)
Values joined by “and” are separate entries in the source; they are usually repeats but may differ in a detail not shown here. Equal entries are not always repeated. Structures can show the parent of a compound that is named as a salt.

What was measured:
[1] = system: Spontaneously Hypertensive Rats; assay: Diuretic activity in spontaneously hypertensive rats; format: in vivo, male spontaneously hypertensive rats of Okamoto strain; conditions: 0-5 hour urine
Experimental: The diuretic activity of the compounds of this invention was determined according to the method of Chan, P. S. and Poorvin, D., Sequential method for combined screening antihypertensive and diuretic agents in the same spontaneously hypertensive rat. Clinical and Experimental Hypertension, 1 (6), 817-830 (1979).
Male spontaneously hypertensive rats of Okamoto strain, 16 weeks old, Taconic Farms Inc., were used in the test. These rats were kept on Purina laboratory chow and tap water ad libitum for 8 weeks before use. The male adult rats (about 300 g) were dosed by gavage with a test compound at 100 mg/kg at zero hour with the exception of one male adult rat in which the test compound dosage was 50 mg/kg. The test compound was suspended in 3% preboiled starch at 50 mg/ml. Each rat was put in metabolism cage. The 0-5 hour urine was collected and urinary sodium and potassium were determined using a Beckman Astra 4.

plasma renin activity = assay: Inhibition of evoked increase of plasma renin activity (PRA) in conscious rats; format: in vivo, male Wistar rats; conditions: oral, 30 min before provocative treatment, Wistar rats
Experimental: Inhibition of evoked increase of plasma renin activity was determined by the following test.
Compounds were tested for their ability to prevent drug-induced elevation of plasma renin activity (PRA) in concious, male Wistar rats (180-200 g, Charles River Lab.). PRA elevation was induced by a combined oral provocative treatment (C) of hydrochlorothiazide (10 mg/kg) and 1-(3-benzoyl-3-mercapto-2-methylpropionyl-L-proline, acetate (U.S. Pat. No. 4,226,775) (1 mg/kg), prepared by compounding in a mortar and pestle with preboiled 3% starch suspension. This treatment provided the daily maximum PRA. The daily minimum PRA was obtained from rats given oral starch suspension (S) alone. The magnitude of drug effect on PRA elevation was ascertained from rats pretreated orally with test agent (D), at the indicated doses, 30 minutes prior to administration of provocative treatment (C). The test agent was also compounded in preboiled 3% starch suspension. The dose volumes for both pretreatment and provocative treatment were 2 ml/kg. One hour after provocative treatment the rats were sacrificed by decapitation and the first 3 seconds of blood collected in two chilled vacutainer tubes containing 40 μl of 150 mg/ml tripotassium EDTA. The plasmas, which were obtained by centrifugation for 20 minutes at 4° C. and 3000×G, were incubated (one of each pair at 37° C., the other at 4° C.) at pH 6.8 in 50 mM phosphate buffer to produce angiotensin I. The incubates contained peptidase inhibitors to prevent angiotensin I degradation and the incubation buffer contained 1 mg/ml lysozyme (Sigma Grade III) used as an antiabsorbant. The incubates were diluted 20 fold in cold 100 mM tris buffer (pH adjusted to 7.4 with glacial acetic acid) also containing 1 mg/ml lysozyme, and then frozen. Diluted incubates were assayed within 3 days for angiotensin I content by radioimmunoassay according to a modification of the method of Haber, et al., J. Clin. Endocrin., 29, 1349-1355 (1969).
PRA is calculated as follows:
PRA([…])=PRA 37° C.-PRA 4° C.
Percent inhibition of PRA elevation is calculated as follows: [formula]

Stability in solution = format: physicochemical
[2] = 100 mg/kg by gavage, hydrobromide
[3] = 100 mg/kg by gavage, hydrochloride

Row | SMILES | Potassium (urinary) ([1]; 100 mg/kg by gavage) [MEQ/5 Hours] | Sodium (urinary) ([1]; 100 mg/kg by gavage) [MEQ/5 Hours] | Volume (urine) ([1]; 100 mg/kg by gavage) [mL] | also measured
1 | CCOC(=O)N=P1(c2ccccc2)c2ccccc2Oc2ccccc21 [10,10-Dihydro-10-[(ethoxycarbonyl)imino]-10-phenyl-10H-phenoxaphosphine] | 0.49 | 2.20 | 19.0 | Percent Inhibition of Plasma Renin Elevation, Av. % Inhibition (plasma renin activity; 1 mg/kg): 33%; Percent Inhibition of Plasma Renin Elevation, Av. % Inhibition (plasma renin activity; 2 mg/kg): 54%; Percent Inhibition of Plasma Renin Elevation, Av. % Inhibition (plasma renin activity; 4 mg/kg): 78%; Percent Inhibition of Plasma Renin Elevation, Av. % Inhibition (plasma renin activity; 8 mg/kg): 91%; Percent Inhibition of Plasma Renin Elevation, Av. % Inhibition (plasma renin activity; 25 mg/kg): 84%
2 | COC(=O)N=P1(c2ccccc2)c2ccccc2Oc2ccccc21 [10,10-Dihydro-10-[(methoxycarbonyl)imino]-10-phenyl-10H-phenoxaphosphine] | 0.74 | 1.48 | 14.0 | –
3 | CC(C)OC(=O)N=P1(c2ccccc2)c2ccccc2Oc2ccccc21 [10,10-Dihydro-10-[[(1-methylethoxy)carbonyl]imino]-10-phenyl-10H-phenoxaphosphine] | 0.66 | 2.30 | 16.5 | –
4 | CC(C)COC(=O)N=P1(c2ccccc2)c2ccccc2Oc2ccccc21 [10,10-Dihydro-10-[[(2-methylpropoxy)carbonyl]-imino]-10-phenyl-10H-phenoxaphosphine] | 0.64 | 1.63 | 12.8 | –
5 | N=P1(c2ccccc2)c2ccccc2Oc2ccccc21 [10,10-Dihydro-10-imino-10-phenyl-10H-phenoxaphosphine, bis(t] [10,10-Dihydro-10-imino-10-phenyl-10H-phenoxaphosphine, bis(trifluoroacetate)] | 0.66 | 1.16 | 12.5 | –
6 | N=P1(c2ccccc2)c2ccccc2Oc2ccccc21 [10,10-Dihydro-10-imino-10-phenyl-10H-phenoxaphosphine, hydrobromide] | – | – | – | Potassium (urinary) [1, 2]: 0.26 MEQ/5 Hours; Sodium (urinary) [1, 2]: 1.12 MEQ/5 Hours; Volume (urine) [1, 2]: 8.0 mL
7 | N=P1(c2ccccc2)c2ccccc2Oc2ccccc21 [10,10-Dihydro-10-imino-10-phenyl-10H-phenoxaphosphine, hydrochloride] | – | – | – | Potassium (urinary) [1, 3]: 0.59 MEQ/5 Hours; Sodium (urinary) [1, 3]: 2.01 MEQ/5 Hours; Volume (urine) [1, 3]: 16.5 mL
8 | N=P1(c2ccccc2)c2ccccc2Oc2ccccc21 [10,10-Dihydro-10-imino-10-phenyl-10H-phenoxaphosphine, sulfa] [10,10-Dihydro-10-imino-10-phenyl-10H-phenoxaphosphine, sulfate] | 0.18 | 1.56 | 9.8 | stability in solution (Stability in solution): stable in solution; Percent Inhibition of Plasma Renin Elevation, Av. % Inhibition (plasma renin activity; 1 mg/kg): 38%; Percent Inhibition of Plasma Renin Elevation, Av. % Inhibition (plasma renin activity; 4 mg/kg): 31% and 42%; Percent Inhibition of Plasma Renin Elevation, Av. % Inhibition (plasma renin activity; 8 mg/kg): 67%
9 | C=CCOC(=O)N=P1(c2ccccc2)c2ccccc2Oc2ccccc21 [10,10-Dihydro-10-phenyl-10-[[(2-propenyloxy)carbonyl]imino]-10H-phenoxaphosphine] | 0.61 | 1.27 | 12.0 | –
10 | C#CCOC(=O)N=P1(c2ccccc2)c2ccccc2Oc2ccccc21 [10,10-Dihydro-10-phenyl-10-[[(2-propynyloxy)carbonyl]imino]-10H-phenoxaphosphine] | 0.61 | 1.13 | 10.5 | –
11 | O=C(N=P1(c2ccccc2)c2ccccc2Oc2ccccc21)OCc1ccccn1 [10,10-Dihydro-10-phenyl-10-[[(2-pyridylmethoxy)carbonyl]imino]-10H-phenoxaphosphine] | – | – | – | Potassium (urinary) ([1]; 50 mg/kg by gavage): 0.74 MEQ/5 Hours; Sodium (urinary) ([1]; 50 mg/kg by gavage): 1.26 MEQ/5 Hours; Volume (urine) ([1]; 50 mg/kg by gavage): 10.8 mL
12 | O=C(N=P1(c2ccccc2)c2ccccc2Oc2ccccc21)OCc1cccnc1 [10,10-Dihydro-10-phenyl-10-[[(3-pyridylmethoxy)carbonyl]imino]-10H-phenoxaphosphine] | 0.59 | 2.61 | 20.5 | –
13 | O=C(N=P1(c2ccccc2)c2ccccc2Oc2ccccc21)OCc1ccccc1 [10,10-Dihydro-10-phenyl-10-[[(phenylmethoxy)carbonyl]imino]-10H-phenoxaphosphine] | 0.56 | 1.32 | 12.3 | –
14 | O=C(N=P1(c2ccccc2)c2ccccc2Oc2ccccc21)OC1CCOC1 (stereo not drawn) [10,10-Dihydro-10-phenyl-10-[[[(tetrahydro-3-furanyl)-oxy]carbonyl]imino]-10H-phenoxaphosphine] | 0.73 | 1.49 | 14.3 | –
15 | O=C(N=P1(c2ccccc2)c2ccccc2Oc2ccccc21)OCc1ccncc1 [10,10-dihydro-10-phenyl-10-[[(4-pyridylmethoxy)carbonyl]imino]-10H-phenoxaphosphine] | 0.40 | 2.28 | 18.0 | –
16 | O=C(N=P1(c2ccccc2)c2ccccc2Oc2ccccc21)OC1CCCC1 [10-[[(Cyclopentyloxy)carbonyl]imino]-10,10-dihydro-10-phenyl-10H-phenoxaphosphine] | 0.60 | 1.71 | 14.0 | –
17 | O=C(N=P1(c2ccccc2)c2ccccc2Oc2ccccc21)OCC1CC1 [10-[[(Cyclopropylmethoxy)carbonyl]imino]-10,10-dihydro-10-phenyl-10H-phenoxaphosphine] | 0.75 | 1.41 | 10.8 | –
